Test results taken from publication PMC10535624, “Curcuminoid Chalcones: Synthesis, Stability, and New Neuroprotective and Sonosensitising Activities” (Pharmaceuticals, 2023).

Legend:
SCC-25 cells = assay: Sonodynamic cytotoxicity, MTT test; type: cell-based, human; conditions: 40 µM, 8 h, then US 3 min, 3 MHz, 0.8 W/cm^2; MTT 6 h later; compared to untreated cells
COX-2 = biological target: T1, COX-2 (Homo sapiens, UniProt P35354); assay: Effect on COX-2 activity; type: biochemical; conditions: samples 3 mM/dm^3 in DMSO, 0.02 mL; mean ± SEM, n = 3
T1 sequence (P35354 18-604): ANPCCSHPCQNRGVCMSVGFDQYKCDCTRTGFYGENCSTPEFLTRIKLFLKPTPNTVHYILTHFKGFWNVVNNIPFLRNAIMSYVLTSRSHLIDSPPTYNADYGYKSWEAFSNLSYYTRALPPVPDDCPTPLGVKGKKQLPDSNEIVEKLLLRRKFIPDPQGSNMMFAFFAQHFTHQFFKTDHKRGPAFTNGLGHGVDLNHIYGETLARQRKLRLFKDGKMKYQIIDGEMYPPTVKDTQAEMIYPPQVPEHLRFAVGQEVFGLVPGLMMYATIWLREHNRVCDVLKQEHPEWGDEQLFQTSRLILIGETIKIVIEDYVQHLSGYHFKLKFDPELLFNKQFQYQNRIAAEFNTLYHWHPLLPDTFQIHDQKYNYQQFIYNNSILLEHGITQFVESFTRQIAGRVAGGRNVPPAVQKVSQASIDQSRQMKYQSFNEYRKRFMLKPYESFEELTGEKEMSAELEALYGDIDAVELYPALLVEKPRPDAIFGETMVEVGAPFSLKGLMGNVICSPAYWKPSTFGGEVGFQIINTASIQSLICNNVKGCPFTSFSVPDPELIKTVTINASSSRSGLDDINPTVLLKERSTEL

[1] = system: glutathione peroxidase (GPx); assay: Effect on GPx activity; type: biochemical; conditions: samples 3 mM/dm^3 in DMSO; mean ± SEM, n = 3
Experimental: We decided to extend the study by measuring the compounds’ ability to inhibit glutathione reductase (GR) and GPx activities, the human cells’ main endogenous enzymatic defence systems. Therefore, we checked the influence of some curcuminoid chalcones on GR and GPx using in vitro spectroscopic methods (Table 2). Moreover, the effects of curcuminoid chalcones on CAT activity were estimated (Table 2).
(§1) The samples were dissolved in DMSO (Sigma D4540) to obtain a concentration of 3 mM/dm^3.
The analyses were performed strictly as described by Studzińska-Sroka et al..

AChE = AChE (Homo sapiens, UniProt P22303); assay: Effect on AChE activity (modified Ellman's method); type: biochemical; conditions: samples 3 mM/dm^3 in DMSO, 0.035 mL; mean ± SEM, n = 3
From the text: Neurodegenerative diseases are associated with the progressive damage of neurons. During the development of these diseases, there is a loss of nerve cells and a deficiency of […], serotonin, and norepinephrine levels. The ability to inhibit acetyl- (AChE) and butyrylcholinesterase (BChE) activities is seen, among others, in organophosphorus compounds, carbamate insecticides, phenoxyacetic pesticides, and hydrogen peroxide, as well as aliphatic ketones with the carbons C4–C9, e.g., 2,5-hexandione. AChE and BChE show differences in their susceptibility to inhibitors, behaviour in situations involving excess substrate, or substrate binding specificity. Unlike, other esterases, both enzymes hydrolyse choline esters at very high speeds. Thus, in our work, the modified Elman’s method was used to investigate the anti-AChE and anti-BChE effects of curcuminoid chalcone.
as §1
The analysis was performed strictly as described by Studzińska-Sroka et al., except that the volume of the tested samples added to the reaction mixture was 0.035 mL.

catalase (CAT) = biological target: T2, catalase (CAT) (Aspergillus niger, UniProt P55303); assay: Effect on CAT activity; type: biochemical; conditions: samples 3 mM/dm^3 in DMSO, 0.01 mL; mean ± SEM, n = 3
T2 construct: purchased Sigma C3515
Experimental: as §1
The method used by Watanabe et al. was used with the following modifications. The reaction mixture was composed of 0.02 mL of EDTA solution (56.5 mM), 0.01 mL of ^the sample, 0.02 mL of 3% H2O2 solution (Sigma H1009), and 0.02 mL of catalase solution (4000-fold diluted, Sigma C3515) (all reagents except the tested sample were diluted in TRIS buffer, pH 7.0, 1 mol/dm^3). The volume was completed to 0.31 mL by the same buffer solution. In a blank sample, DMSO (Sigma D4540) replaced the tested sample. The background of the sample was measured in a mixture composed of 0.01 mL of the sample completed to 0.31 mL by the buffer. The absorbance was read at 240 nm directly after the mixing and after 5 min of incubation (room temperature). The decreased absorbance (depletion of H2O2) in the tested and blank samples was compared. The calibration curve was produced using eleven H2O2 solutions (0.5693–5.693 mM/dm^3). The results are expressed in % inhibition and as H2O2 depletion (mmol of depleted H2O2/dm^3 min).

SOD2 gene = system: SOD2 gene; design: method as in PMID 37779412; conditions: qRT-PCR ref 35; cited from earlier work

Sequence of AChE (P22303 32-614): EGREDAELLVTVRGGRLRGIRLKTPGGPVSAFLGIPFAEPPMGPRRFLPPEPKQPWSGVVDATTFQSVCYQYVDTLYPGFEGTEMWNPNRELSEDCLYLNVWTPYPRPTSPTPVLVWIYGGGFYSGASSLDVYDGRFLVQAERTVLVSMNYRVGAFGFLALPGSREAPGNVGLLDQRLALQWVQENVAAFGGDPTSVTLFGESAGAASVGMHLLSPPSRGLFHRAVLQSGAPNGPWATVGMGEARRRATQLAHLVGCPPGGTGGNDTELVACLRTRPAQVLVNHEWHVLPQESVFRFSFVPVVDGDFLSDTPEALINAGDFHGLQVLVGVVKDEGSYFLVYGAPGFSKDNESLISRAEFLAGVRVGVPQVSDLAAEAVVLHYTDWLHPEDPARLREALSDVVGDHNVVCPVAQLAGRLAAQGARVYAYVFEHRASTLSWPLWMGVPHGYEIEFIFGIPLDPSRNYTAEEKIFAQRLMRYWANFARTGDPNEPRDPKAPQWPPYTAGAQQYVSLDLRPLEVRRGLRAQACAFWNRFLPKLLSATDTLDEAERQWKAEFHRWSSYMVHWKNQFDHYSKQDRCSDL
T2 sequence (P55303 whole entry): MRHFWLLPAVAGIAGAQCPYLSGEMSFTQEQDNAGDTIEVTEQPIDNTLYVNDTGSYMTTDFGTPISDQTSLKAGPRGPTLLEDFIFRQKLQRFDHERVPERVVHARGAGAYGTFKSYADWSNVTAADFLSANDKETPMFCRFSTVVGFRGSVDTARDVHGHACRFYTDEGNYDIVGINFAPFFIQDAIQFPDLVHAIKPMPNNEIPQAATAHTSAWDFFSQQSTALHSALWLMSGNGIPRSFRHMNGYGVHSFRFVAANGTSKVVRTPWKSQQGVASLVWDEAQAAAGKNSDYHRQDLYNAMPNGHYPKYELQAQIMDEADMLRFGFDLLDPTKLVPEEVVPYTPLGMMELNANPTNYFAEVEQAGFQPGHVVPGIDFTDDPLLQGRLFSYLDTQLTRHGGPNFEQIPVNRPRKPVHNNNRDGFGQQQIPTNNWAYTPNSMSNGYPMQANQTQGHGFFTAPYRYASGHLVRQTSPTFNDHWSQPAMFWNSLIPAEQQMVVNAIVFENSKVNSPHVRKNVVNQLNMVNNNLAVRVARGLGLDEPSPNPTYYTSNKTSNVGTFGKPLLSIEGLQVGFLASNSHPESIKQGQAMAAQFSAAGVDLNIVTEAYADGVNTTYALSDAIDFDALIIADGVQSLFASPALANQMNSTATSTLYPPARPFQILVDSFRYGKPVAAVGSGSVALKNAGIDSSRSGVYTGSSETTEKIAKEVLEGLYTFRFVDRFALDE

SMILES	Reduction of viability of SCC-25 cells, compound combined with US (SCC-25 cells)	COX-2 Inhibition (%) (COX-2)	GPx Inhibition (%) [1]	GPx activity (NADPH consumption rate) [1]	AChE % (inhibition) (AChE)	AChE, Equivalent Concentration of Reference Compound Magniflorine (AChE)	AChE, Equivalent Concentration of Reference Compound Rivastigmine (AChE)	CAT Inhibition (%) (catalase (CAT))	CAT Inhibition of the H2O2 Depletion (catalase (CAT))	Decrease of expression of the SOD2 gene compared to the control (SOD2 gene)
COc1cc(C=CC(=O)c2ccccc2)ccc1OC(=O)C(C)c1ccc(CC(C)C)cc1 (stereo not shown) [Compound 2, 2-Methoxy-4-(3-oxo-3-phenylprop-1-en-1-yl)phenyl-2-(4-isobutylphenyl)-propionate]	significantly reduced viability	-	17.0 ± 3.4%	33.8 ± 6.8 nmol Depleted NADPH/min	90.5 ± 4.2%	0.34 ± 0.02 µg/mL	0.52 ± 0.02 µg/mL			
COc1ccc(C=CC(=O)c2ccccc2)cc1OC(=O)C(C)c1ccc(CC(C)C)cc1 (stereo not shown) [Compound 6, 2-Methoxy-5-(3-oxo-3-phenylprop-1-en-1-yl)phenyl-2-(4-isobutylphenyl)-propionate]		-	17.4 ± 1.7%	34.6 ± 3.3 nmol Depleted NADPH/min	73.7 ± 5.1%	0.28 ± 0.02 µg/mL	0.42 ± 0.03 µg/mL	41.9 ± 1.2%	0.15 ± 0.01 mm/dm^3/min	65.20%
